Measured values published in the supplement of paper PMC4932681.

Tests used:
[1] = test system: BT-474 Tam2; assay: relative IC50 (midpoint of fitted logistic curve, plateau may be below 50% inhibition; CellTiter-Glo viability); higher = less potent; settings: 4-OH-tamoxifen in medium 1 µM; 72 h
Outline: (§1)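 Drug sensitivity score, relative IC50 as the curve midpoint, and top-dose inhibition were derived from logistic dose–response fits in the Breeze pipeline. These fits used CellTiter-Glo viability, read on a PHERAstar and normalised to vehicle-only and positive controls. Breast cancer cell lines and resistant derivatives had been incubated for 72 h at 37 °C in 384-well plates holding library drugs at five concentrations spanning a 10 000-fold range. Resistant lines were grown in medium with 1 μM of the selecting drug.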

[2] = test system: BT-474; assay: as above; settings: 72 h
Outline: as §1

[3] = test system: ZR-75-1 Tam1; assay: as above; settings: 4-OH-tamoxifen in medium 1 µM; 72 h
Outline: as §1

[4] = test system: ZR-75-1; assay: as above; settings: 72 h
Outline: as §1

[5] = test system: MCF-7; assay: as above; settings: 72 h
Outline: as §1

[6] = test system: ZR-75-1 Tam2; assay: as above; settings: 4-OH-tamoxifen in medium 1 µM; 72 h
Outline: as §1

[7] = test system: T-47D Tam2; assay: as above; settings: 4-OH-tamoxifen in medium 1 µM; 72 h
Outline: as §1

[8] = test system: T-47D; assay: as above; settings: 72 h
Outline: as §1

[9] = test system: MCF-7 Tam1; assay: as above; settings: 4-OH-tamoxifen in medium 1 µM; 72 h
Outline: as §1

[10] = test system: BT-474 Tam1; assay: as above; settings: 4-OH-tamoxifen in medium 1 µM; 72 h
Outline: as §1

[11] = test system: BT-474 Tam2; assay: drug sensitivity score (DSS) (DSS (dimensionless)); higher = more sensitive; extreme values may be limits of the assay; settings: 4-OH-tamoxifen in medium 1 µM; 72 h
Outline: as §1

[12] = test system: BT-474; assay: as above; settings: 72 h
Outline: as §1

[13] = test system: ZR-75-1 Tam1; assay: as above; settings: 4-OH-tamoxifen in medium 1 µM; 72 h
Outline: as §1

[14] = test system: ZR-75-1; assay: as above; settings: 72 h
Outline: as §1

[15] = test system: MCF-7; assay: as above; settings: 72 h
Outline: as §1

[16] = test system: ZR-75-1 Tam2; assay: as above; settings: 4-OH-tamoxifen in medium 1 µM; 72 h
Outline: as §1

[17] = test system: T-47D Tam1; assay: as above; settings: 4-OH-tamoxifen in medium 1 µM; 72 h
Outline: as §1

[18] = test system: T-47D Tam2; assay: as above; settings: 4-OH-tamoxifen in medium 1 µM; 72 h
Outline: as §1

[19] = test system: T-47D; assay: as above; settings: 72 h
Outline: as §1

[20] = test system: MCF-7 Tam1; assay: as above; settings: 4-OH-tamoxifen in medium 1 µM; 72 h
Outline: as §1

[21] = test system: BT-474 Tam1; assay: as above; settings: 4-OH-tamoxifen in medium 1 µM; 72 h
Outline: as §1

[22] = test system: T-47D Tam1; assay: relative IC50 (midpoint of fitted logistic curve, plateau may be below 50% inhibition; CellTiter-Glo viability); higher = less potent; settings: 4-OH-tamoxifen in medium 1 µM; 72 h
Outline: as §1

relative IC50 [1] [nM] | relative IC50 ([2]; 4-OH-tamoxifen in medium 0 µM) [nM] | relative IC50 ([2]; 4-OH-tamoxifen in medium 1 µM) [nM] | relative IC50 ([5]; 4-OH-tamoxifen in medium 0 µM) [nM] | relative IC50 [7] [nM] | relative IC50 ([8]; 4-OH-tamoxifen in medium 0 µM) [nM] | relative IC50 ([8]; 4-OH-tamoxifen in medium 1 µM) [nM] | relative IC50 [9] [nM] | relative IC50 [10] [nM] | relative IC50 ([5]; 4-OH-tamoxifen in medium 1 µM) [nM] | relative IC50 [22] [nM] | SMILES | relative IC50 [3] [nM] | relative IC50 ([4]; 4-OH-tamoxifen in medium 0 µM) [nM] | relative IC50 ([4]; 4-OH-tamoxifen in medium 1 µM) [nM] | relative IC50 [6] [nM] | drug sensitivity score [11] | drug sensitivity score ([12]; 4-OH-tamoxifen in medium 0 µM) | drug sensitivity score ([12]; 4-OH-tamoxifen in medium 1 µM) | drug sensitivity score [13] | drug sensitivity score ([14]; 4-OH-tamoxifen in medium 0 µM) | drug sensitivity score ([14]; 4-OH-tamoxifen in medium 1 µM) | drug sensitivity score ([15]; 4-OH-tamoxifen in medium 0 µM) | drug sensitivity score ([15]; 4-OH-tamoxifen in medium 1 µM) | drug sensitivity score [16] | drug sensitivity score [17] | drug sensitivity score [18] | drug sensitivity score ([19]; 4-OH-tamoxifen in medium 0 µM) | drug sensitivity score ([19]; 4-OH-tamoxifen in medium 1 µM) | drug sensitivity score [20] | drug sensitivity score [21]
> 1000 | > 1000 | > 1000 | 6.43 | > 1000 | > 1000 | 45 | > 1000 | > 1000 |  |  | C[C@]12CC[C@@H]3c4ccc(O)cc4C[C@@H](CCCCCCCCC[S+]([O-])CCCC(F)(F)C(F)(F)F)[C@H]3[C@@H]1CC[C@@H]2O (stereo partly specified) [Fulvestrant] | > 1000 | > 1000 | > 1000 | > 1000 | 0 | 0 | 0 | 0 | 0 | 0 | 7.84 | 0.235 | 0 | 0.0366 | 0 | 0 | 5.21 | 0 | 0
> 10000 | > 10000 | > 10000 | > 10000 | > 10000 | > 10000 |  | > 10000 | > 10000 | > 10000 |  | N#Cc1ccc(C(c2ccc(C#N)cc2)n2cncn2)cc1 [Letrozole] | > 10000 | > 10000 | > 10000 | > 10000 | 0 | 0 | 0 | 0 | 0 | 0 | 0 | 0 | 0 | 2.88 | 0 | 0 | 11.1 | 0 | 0
1620 | 1100 |  | 2530 | 2710 |  |  | > 10000 |  | 1890 | 492 | COc1ccccc1S(=O)(=O)Nc1ccc2c(c1)CN(C)C(=O)N2 [PFI-1] |  |  |  |  | 2.35 | 2.69 | 0.561 | 1.48 | 0.0459 | 1.01 | 2.8 | 2.92 | 1.77 | 4.01 | 1.76 | 0.887 | 0.0577 | 0 | 0.704
> 10000 | > 10000 | > 10000 | > 10000 | > 10000 | > 10000 | > 10000 | > 10000 | > 10000 |  | > 10000 | C=CCN(/C=C1/C(=O)O[C@H](COC)[C@@]2(C)C1=C(O)C(=O)C1=C2[C@H](OC(C)=O)C[C@]2(C)C(=O)CC[C@@H]12)CC=C [Sonolisib (PX-866)] |  | > 10000 |  |  | 0 | 0 | 0 | 0.103 | 0 | 0.361 | 0 | 0 | 0.0742 | 0 | 0 | 0 | 0 | 0 | 0
> 10000 | > 10000 | > 10000 | > 10000 | > 10000 | > 10000 | > 10000 | > 10000 | > 10000 | > 10000 |  | COc1cc(Nc2ncc(F)c(Nc3ccc4c(n3)NC(=O)C(C)(C)O4)n2)cc(OC)c1OC [Tamatinib (R406)] | > 10000 | > 10000 | > 10000 | > 10000 | 0 | 0 | 0 | 0 | 0 | 0 | 0 | 0 | 0 | 0.592 | 0 | 0 | 0 | 0 | 0
3020 |  | 3520 |  | 3460 | > 10000 | > 10000 | 4150 | 3410 | 3690 | 1860 | CN(C)CCOc1ccc(/C(=C(/CCCl)c2ccccc2)c2ccccc2)cc1 [Toremifene (citrate)] |  | > 10000 |  |  | 5.77 | 0.652 | 4.16 | 0.357 | 0 | 0.599 | 0.353 | 3.26 | 0.814 | 3.53 | 3.09 | 0 | 0 | 1.2 | 4.96
442 | 42.9 | 84.3 | 202 | 583 |  | 1730 | > 10000 | 249 | 141 | 687 | CCC1=C[C@@H]2CN(C1)Cc1c([nH]c3ccccc13)[C@@](C(=O)OC)(c1cc3c(cc1OC)N(C)[C@H]1[C@@](O)(C(=O)OC)[C@H](OC(C)=O)[C@]4(CC)C=CCN5CC[C@]31[C@@H]54)C2 [Vinorelbine (tartrate)] |  | 43.3 | 1540 |  | 14.3 | 13.8 | 23 | 1.16 | 9.06 | 3.16 | 9.78 | 12.3 | 2.36 | 7.24 | 8.26 | 6.22 | 2.28 | 0 | 17.2

SMILES | relative IC50 [1] [nM] | relative IC50 ([2]; 4-OH-tamoxifen in medium 0 µM) [nM] | relative IC50 ([2]; 4-OH-tamoxifen in medium 1 µM) [nM] | relative IC50 ([5]; 4-OH-tamoxifen in medium 0 µM) [nM] | relative IC50 [7] [nM] | relative IC50 ([8]; 4-OH-tamoxifen in medium 0 µM) [nM] | relative IC50 ([8]; 4-OH-tamoxifen in medium 1 µM) [nM] | relative IC50 [9] [nM] | relative IC50 [10] [nM] | relative IC50 ([5]; 4-OH-tamoxifen in medium 1 µM) [nM] | relative IC50 [22] [nM] | relative IC50 [3] [nM] | relative IC50 ([4]; 4-OH-tamoxifen in medium 0 µM) [nM] | relative IC50 ([4]; 4-OH-tamoxifen in medium 1 µM) [nM] | relative IC50 [6] [nM] | drug sensitivity score [11] | drug sensitivity score ([12]; 4-OH-tamoxifen in medium 0 µM) | drug sensitivity score ([12]; 4-OH-tamoxifen in medium 1 µM) | drug sensitivity score [13] | drug sensitivity score ([14]; 4-OH-tamoxifen in medium 0 µM) | drug sensitivity score ([14]; 4-OH-tamoxifen in medium 1 µM) | drug sensitivity score ([15]; 4-OH-tamoxifen in medium 0 µM) | drug sensitivity score ([15]; 4-OH-tamoxifen in medium 1 µM) | drug sensitivity score [16] | drug sensitivity score [17] | drug sensitivity score [18] | drug sensitivity score ([19]; 4-OH-tamoxifen in medium 0 µM) | drug sensitivity score ([19]; 4-OH-tamoxifen in medium 1 µM) | drug sensitivity score [20] | drug sensitivity score [21]
C/C(=C\c1csc(C)n1)[C@@H]1C[C@@H]2O[C@]2(C)CCC[C@H](C)[C@H](O)[C@@H](C)C(=O)C(C)(C)[C@@H](O)CC(=O)O1 [Patupilone  (Epothilone B)] | 29.7 | 20.1 | 5.98 |  | 14.7 | 9.51 | 242 | > 1000 | 11.8 |  |  | > 1000 |  | > 1000 | > 1000 | 5.53 | 9.82 | 14.9 | 0 | 4.4 | 0 | 7.85 | 4.38 | 0 | 4.63 | 6.29 | 8.94 | 1.35 | 0 | 8.19
